According to patent US7192924B2, “Corticotropin releasing factor 2 receptor agonists” (priority 2002, dated 2007):
Peptide text beside a SMILES is read from it.

Columns and labels:
[1] = molecular target: T1, CRF1R (Homo sapiens, UniProt P34998); experiment: CRF1R agonist activity (EC50, Emax), called comparative CRF binding; format: cell-based; conditions: read-out: CRF1R EC50
T1 sequence (P34998 24-415): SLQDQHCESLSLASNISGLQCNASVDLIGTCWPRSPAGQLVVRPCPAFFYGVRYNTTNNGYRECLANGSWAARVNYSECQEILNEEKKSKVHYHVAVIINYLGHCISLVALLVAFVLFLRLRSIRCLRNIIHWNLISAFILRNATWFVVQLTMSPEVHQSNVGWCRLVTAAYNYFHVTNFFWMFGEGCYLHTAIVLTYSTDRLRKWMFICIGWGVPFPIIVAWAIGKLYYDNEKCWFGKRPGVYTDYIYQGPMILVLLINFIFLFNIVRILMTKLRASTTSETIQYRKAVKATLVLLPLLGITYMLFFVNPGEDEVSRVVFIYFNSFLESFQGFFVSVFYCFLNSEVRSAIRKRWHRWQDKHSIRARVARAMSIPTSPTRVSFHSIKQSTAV
In short: (§1)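 Peptides were applied to cells carrying a single CRFR subtype, then cAMP levels or CRE-driven reporter expression were quantified against vehicle-treated cells.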

[2] = molecular target: T2, CRF2R (Homo sapiens, UniProt Q13324); experiment: CRF2R agonist activity (EC50, Emax), called comparative CRF binding; format: cell-based; conditions: read-out: CRF2R EC50
T2 sequence (Q13324 1-411): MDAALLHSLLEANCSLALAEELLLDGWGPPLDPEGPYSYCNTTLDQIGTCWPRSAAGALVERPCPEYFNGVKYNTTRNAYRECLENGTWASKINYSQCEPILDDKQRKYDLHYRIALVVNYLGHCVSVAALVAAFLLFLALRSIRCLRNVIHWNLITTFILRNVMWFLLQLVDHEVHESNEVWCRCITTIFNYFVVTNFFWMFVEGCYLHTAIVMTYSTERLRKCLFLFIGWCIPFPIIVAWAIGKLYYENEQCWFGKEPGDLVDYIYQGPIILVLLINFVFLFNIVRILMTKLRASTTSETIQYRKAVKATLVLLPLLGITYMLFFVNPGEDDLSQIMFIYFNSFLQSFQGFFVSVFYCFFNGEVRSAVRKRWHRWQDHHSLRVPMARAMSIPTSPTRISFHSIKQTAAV
In short: as §1

| Structure (SMILES) | EC50 [1] [nM] | EC50 [2] [nM] |
| --- | --- | --- |
| CC[C@H](C)[C@H](NC(=O)[C@H](CCCNC(=N)N)NC(=O)[C@H](C)NC(=O)[C@H](CC(N)=O)NC(=O)[C@H](CCC(N)=O)NC(=O)[C@H](CCC(=O)O)NC(=O)[C@H](C)NC(=O)[C@H](CCCNC(=N)N)NC(=O)[C@H](CCC(=O)O)NC(=O)[C@H](CCCNC(=N)N)NC(=O)[C@H](CCC(N)=O)NC(=O)[C@H](CO)NC(=O)[C@H](CCC(N)=O)NC(=O)[C@@H](NC(=O)[C@H](CCCCN)NC(=O)[C@H](CCC(=O)O)NC(=O)[C@H](CC(C)C)NC(=O)[C@H](CCC(=O)O)NC(=O)[C@H](CC(C)C)NC(=O)[C@H](CC(C)C)NC(=O)[C@@H](NC(=O)[C@H](CCCNC(=N)N)NC(=O)[C@H](CC(C)C)NC(=O)[C@H](CC(C)C)NC(=O)[C@H](CC(C)C)NC(=O)[C@H](CC(C)C)NC(=O)[C@@H]1CCCN1C(=O)[C@H](CC(C)C)NC(=O)[C@H](CC(=O)O)NC(=O)[C@@H](NC(=O)[C@H](CO)NC(=O)[C@H](CC(C)C)NC(=O)[C@H](CO)NC(=O)[C@@H]1CCCN1C(=O)[C@H](CC(N)=O)NC(=O)[C@@H](N)CC(=O)O)[C@@H](C)CC)[C@@H](C)O)[C@@H](C)O)C(=O)N[C@@H](Cc1ccccc1)C(=O)N[C@@H](CC(=O)O)C(=O)N[C@@H](CCCNC(=N)N)C(=O)N[C@H](C(N)=O)C(C)C [compound 338] (H-DNPSLSIDLPLLLLRTLLELEKTQSQRERAEQNARIFDRV-NH2; N-terminus assumed) | ≥ 1000 | 19.3 |
| CC[C@H](C)[C@H](NC(=O)[C@H](CCCNC(=N)N)NC(=O)[C@H](C)NC(=O)[C@H](CC(N)=O)NC(=O)[C@H](CCC(N)=O)NC(=O)[C@H](CCC(=O)O)NC(=O)[C@H](C)NC(=O)[C@H](CCCNC(=N)N)NC(=O)[C@H](CCC(=O)O)NC(=O)[C@H](CCCNC(=N)N)NC(=O)[C@H](CCC(N)=O)NC(=O)[C@H](CO)NC(=O)[C@H](CCC(N)=O)NC(=O)[C@@H](NC(=O)[C@H](CCCNC(=N)N)NC(=O)[C@H](C)NC(=O)[C@H](CC(C)C)NC(=O)[C@H](CCC(=O)O)NC(=O)[C@H](CC(C)C)NC(=O)[C@H](CC(C)C)NC(=O)[C@@H](NC(=O)[C@H](CCCNC(=N)N)NC(=O)[C@H](CC(C)C)NC(=O)[C@H](CC(C)C)NC(=O)[C@H](CC(C)C)NC(=O)[C@H](CC(C)C)NC(=O)[C@@H]1CCCN1C(=O)[C@H](CC(C)C)NC(=O)[C@H](CC(=O)O)NC(=O)[C@@H](NC(=O)[C@H](CO)NC(=O)[C@H](CC(C)C)NC(=O)[C@H](CO)NC(=O)[C@@H]1CCCN1C(=O)[C@H](CC(N)=O)NC(=O)[C@@H](N)CC(=O)O)[C@@H](C)CC)[C@@H](C)O)[C@@H](C)O)C(=O)N[C@@H](Cc1ccccc1)C(=O)N[C@@H](C)C(=O)N[C@@H](CCCNC(=N)N)C(=O)N[C@H](C(N)=O)C(C)C [compound 340] (H-DNPSLSIDLPLLLLRTLLELARTQSQRERAEQNARIFARV-NH2; N-terminus assumed) | 739 | 7.99 |
| CC[C@H](C)[C@H](NC(=O)[C@H](CCCNC(=N)N)NC(=O)[C@H](C)NC(=O)[C@H](CC(N)=O)NC(=O)[C@H](CCC(N)=O)NC(=O)[C@H](CCC(=O)O)NC(=O)[C@H](C)NC(=O)[C@H](CCCNC(=N)N)NC(=O)[C@H](CCC(=O)O)NC(=O)[C@H](CCCNC(=N)N)NC(=O)[C@H](CCC(N)=O)NC(=O)[C@H](CO)NC(=O)[C@H](CCC(N)=O)NC(=O)[C@@H](NC(=O)[C@H](CCCCN)NC(=O)[C@H](CCC(=O)O)NC(=O)[C@H](CC(C)C)NC(=O)[C@H](CCC(=O)O)NC(=O)[C@H](CC(C)C)NC(=O)[C@H](CC(C)C)NC(=O)[C@@H](NC(=O)[C@H](CCCNC(=N)N)NC(=O)[C@H](CC(C)C)NC(=O)[C@H](CC(C)C)NC(=O)[C@H](CC(C)C)NC(=O)[C@H](CC(C)C)NC(=O)[C@@H]1CCCN1C(=O)[C@H](CC(C)C)NC(=O)[C@H](CC(=O)O)NC(=O)[C@@H](NC(=O)[C@H](CO)NC(=O)[C@H](CC(C)C)NC(=O)[C@H](CO)NC(=O)[C@@H]1CCCN1C(=O)[C@H](CC(N)=O)NC(=O)[C@@H](N)CC(=O)O)[C@@H](C)CC)[C@@H](C)O)[C@@H](C)O)C(=O)N[C@@H](Cc1ccccc1)C(=O)N[C@@H](C)C(=O)N[C@@H](CCCNC(=N)N)C(=O)N[C@H](C(N)=O)C(C)C [compound 341] (H-DNPSLSIDLPLLLLRTLLELEKTQSQRERAEQNARIFARV-NH2; N-terminus assumed) | 850 | 8.83 |
